The values below come from patent publication US20170065593A1, “Combination” (Novartis AG, priority 2009, published 2017).

This test concerns A549 lung cancer cell line. Description: Assay 2: cell growth (CellTiterGlo, 72 hours), Ymin. The test is classed as cell-based. The note with it: percent of T=0 (T=0 = 100%). Here is the method: FIG. 5 depicts the effect of MEK inhibitor, mTOR inhibitor and their combination on A549 lung cancer cell line growth. […] Cells were treated with MEK inhibitor (two fold dilutions ranging from 7.3 uM-0.014 nM) or with mTOR inhibitor (two fold dilutions ranging from 14.6 uM-0.112 nM) or in combination with both compounds and incubated for 72 hours. Cell growth was measured using the CellTiterGlo (CTG) reagent (Promega) according to the manufacturer's protocol. Data were analyzed using the XLfit (IDBS Ltd.) curve-fitting tool for Microsoft Excel. Growth IC50 (gIC50) and Ymin values were generated using a four-parameter curve fit algorithm (XLFit algorithm #205). Results were expressed as a percent of the t=0 and plotted against the compound concentration. […] Formula below was used to calculate mutually exclusive combination index (CI). Data were reported as log CI, where the logarithm value of CI was calculated. […] Similar analysis was performed for all cell lines and Ymin results are depicted in FIG. 6.

On to “N-{3-[3-cyclopropyl-5-(2-fluoro-4-iodo-phenylamino)6,8-dimethyl;-2,4,7-trioxo-3,4,6,7-tetrahydro-2H-pyrido[4,3-d]pyrimidin-1-yl]phenyl}acetamide [Compound A]”, for which the “Ymin (lower Y value at any compound concentration)” value turned out to be 257%.
